Like-named read-outs stand apart in the source and are kept apart here.
Molecular target: PDE10 from pig striatum (Sus scrofa, UniProt A0A287B941)
Experiment: Inhibition of PDE10 from pig striatum ([3H]-cAMP SPA)
Type: biochemical
Method: Phosphodiesterase isoenzyme 10 (PDE10) activity was determined in preparations of human recombinant PDE10A and PDE10 from pig striatum, respectively.
Striatum from male hybrid pigs (150 kg) were collected and frozen at −70° C.
At the day of preparation 0.5 g striatum was homogenised in 10 ml 50 mM Tris/Mg-buffer at 4° C. and centrifuged for one hour at 100000 g. The supernatant was removed and the pellet was resuspended in the same buffer, but containing 1% Triton and incubated for 45 min at 4° C. The membrane fraction was applied onto a 5 ml Hi Trap™ QHP column at the Akta-FPLC. After washing the column the bound PDE protein was eluted with an increasing sodium chloride gradient (O mM-500 mM sodium chloride) in 50 mM Tris/Mg-buffer at 4° C. in the presence of 1% Triton. […] The fractions with PDE10-activity were pooled and frozen in aliquots until use at −20° C.
(§1) PDE10 activity was determined in a one step procedure in microtiterplates. […] Nonspecific activity was tested without the enzyme. The reaction was initiated by addition of the substrate solution and was carried out at 37° C. for 30 minutes. Enzymatic activity was stopped by addition of 25 μl YSi-SPA-beads (Amersham-Pharmacia). One hour later the mixture was measured in a liquid scintillation counter for microtiterplates (Microbeta Trilux). To pipette the incubation mixture a robot Biomek (Fa. Beckman) is used. […] For determination of IC50 values the Hill-plot, 2-parameter-model, was used.
The phosphodiesterase isoenzyme 10 (PDE10) activity was determined in preparations of rat, pig and guinea pig striatum respectively. Striatum from male Wistar rats (180-200 g), male hybrid pigs (150 kg) and male guinea pigs (CRL (HA), 500 g) respectively were collected and frozen at −70° C.
At the day of preparation 0.5 g striatum was homogenized in 10 ml 50 mM Tris/Mg-buffer at 4° C. and centrifuged for one hour at 100000 g. The supernatant is called the cytosolic fraction and was removed and stored on ice. The pellet was resuspended in the same buffer, but containing 1% Triton and incubated for 45 min at 4° C. Both fractions were independently applied onto a 5 ml Hi Trap™ QHP column at the Akta-FPLC. After washing the columns the bound PDE protein was eluted with an increasing sodium chloride gradient (0 mM-500 mM sodium chloride) in 50 mM Tris/Mg-buffer at 4° C. for the cytosolic fraction and in the presence of 1% Triton for the membrane fraction. […] The fractions with PDE10-activity were pooled and frozen in aliquots until use at −20° C.
as §1, with “YSi-SPA beads” for “YSi-SPA-beads”

[1] = Table 8, read-out: PDE10 pig IC50
[2] = Table 7, read-out: PDE10 pig IC50

Structure (SMILES)	IC50 [1] [nM]	also measured
COc1ccc2nc(C)c3c(C)nc(-c4ccc(C(N)=O)cc4)n3c2n1 [Example 85, 4-(2-Methoxy-6,7-dimethylimidazo[1,5-a]pyrido[3,2-e]pyrazin-9-yl)benzamide]	< 10	
Cc1nc(CCC(F)(F)F)n2c1c(Cl)nc1ccc(OCC(F)(F)F)nc12 [Example 1, 6-Chloro-7-methyl-2-(2,2,2-trifluoroethoxy)-9-(3,3,3-trifluoropropyl)imidazo[1,5-a]pyrido[3,2-e]pyrazine]		IC50 [2]: 10 to 100 nM
COc1ccc2nc(C)c3c(C)nc(-c4cnccc4OC)n3c2n1 [Example 30, 2-Methoxy-9-(4-methoxypyridin-3-yl)-6,7-dimethylimidazo[1,5-a]pyrido[3,2-e]pyrazine]		IC50 [2]: 10 to 100 nM
COc1ccc(C#Cc2nc(C)c3c(C)nc4ccc(OC)nc4n23)cc1 [Example 77, 2-Methoxy-9-[(4-methoxyphenyl)ethynyl]-6,7-dimethylimidazo[1,5-a]pyrido[3,2-e]pyrazine]	10 to 100	
COc1ccc2nc(C)c3c(C)nc(C#Cc4ccccc4OC)n3c2n1 [Example 98, 2-Methoxy-9-[(2-methoxyphenyl)ethynyl]-6,7-dimethylimidazo[1,5-a]pyrido[3,2-e]pyrazine]	> 100	
COc1ccc2nc(C)c3c(C)nc(-c4cccc(OC)c4F)n3c2n1 [Example 15, 9-(2-Fluoro-3-methoxyphenyl)-2-methoxy-6,7-dimethylimidazo[1,5-a]pyrido[3,2-e]pyrazine]		IC50 [2]: 10 to 100 nM
COc1ccc2nc(C)c3c(C)nc(C#Cc4ccccc4)n3c2n1 [Example 75, 2-Methoxy-6,7-dimethyl-9-(phenylethynyl)imidazo[1,5-a]pyrido[3,2-e]pyrazine]	10 to 100	
COc1ccc2nc(C)c3c(C)nc(-c4ccc(C)cc4F)n3c2n1 [Example 14, 9-(2-Fluoro-4-methylphenyl)-2-methoxy-6,7-dimethylimidazo[1,5-a]pyrido[3,2-e]pyrazine]		IC50 [2]: < 10 nM
COc1ccc2nc(C)c3c(C)nc(-c4ccc(F)cc4OC)n3c2n1 [Example 86, 9-(4-Fluoro-2-methoxyphenyl)-2-methoxy-6,7-dimethylmidazo[1,5-a]pyrido[3,2-e]pyrazine]	10 to 100	
CONC(=O)c1cccc(-c2nc(C)c3c(C)nc4ccc(OC)nc4n23)c1 [Example 102, N-Methoxy-3-(2-methoxy-6,7-dimethylimidazo[1,5-a]pyrido[3,2-e]pyrazin-9-yl)benzamide]	10 to 100	
COc1ccc2nc(C)c3c(C)nc(C#CC4CC4)n3c2n1 [Example 97, 9-(Cyclopropylethynyl)-2-methoxy-6,7-dimethylmidazo[1,5-a]pyrido[3,2-e]pyrazine]	10 to 100	
CCOc1ccc2nc(C)c3c(C)nc(-c4ccccc4Cl)n3c2n1 [Example 4, 9-(2-Chlorophenyl)-2-ethoxy-6,7-dimethylimidazo[1,5-a]pyrido[3,2-e]pyrazine]		IC50 [2]: < 10 nM
COc1ccc2nc(C)c3c(C)nc(-c4cncnc4)n3c2n1 [Example 27, 2-Methoxy-6,7-dimethyl-9-pyrimidin-5-ylimidazo[1,5-a]pyrido[3,2-e]pyrazine]		IC50 [2]: < 10 nM
COc1ccc2nc(C)c3c(C)nc(C#CC4CCCCC4)n3c2n1 [Example 95, 9-(Cyclohexylethynyl)-2-methoxy-6,7-dimethylimidazo[1,5-a]pyrido[3,2-e]pyrazine]	> 100	
COc1ccc2nc(C)c3c(C)nc(-c4cc(Cl)cc(Cl)c4)n3c2n1 [Example 6, 9-(3,5-Dichlorophenyl)-2-methoxy-6,7-dimethylimidazo[1,5-a]pyrido[3,2-e]pyrazine]		IC50 [2]: 10 to 100 nM
COc1ccc2nc(C)c3c(C)nc(-c4ccncc4)n3c2n1 [Example 11, 2-Methoxy-6,7-dimethyl-9-pyridin-4-ylimidazo[1,5-a]pyrido[3,2-e]pyrazine]		IC50 [2]: 10 to 100 nM
COc1ccc2nc(C)c3c(C)nc(-c4cc(F)ccc4Cl)n3c2n1 [Example 22, 9-(2-Chloro-5-fluorophenyl)-2-methoxy-6,7-dimethylimidazo[1,5-a]pyrido[3,2-e]pyrazine]		IC50 [2]: < 10 nM
COc1ccc2nc(C)c3c(C)nc(C#Cc4ccccc4C)n3c2n1 [Example 99, 2-Methoxy-6,7-dimethyl-9-[(2-methylphenyl)ethynyl]imidazo[1,5-a]pyrido[3,2-e]pyrazine]	> 100	
COc1ccc2nc(C)c3c(C)nc(-c4ccc(C(F)(F)F)cc4)n3c2n1 [Example 67, 2-Methoxy-6,7-dimethyl-9-[4-(trifluoromethyl)phenyl]imidazo[1,5-a]pyrido[3,2-e]pyrazine]	10 to 100	
COc1ccc2nc(C#N)c3c(C)nc(-c4ccc(Cl)cc4Cl)n3c2n1 [Example 112, 9-(2,4-dichlorophenyl)-2-methoxy-7-methylimidazo[1,5-a]pyrido[3,2-e]pyrazine-6-carbonitrile]		IC50 (Table 9, cells marked pPDE10, read-out: IC50 (nM) (pPDE10)): < 10 nM
COc1ccc2nc(C)c3c(C)nc(-c4ccc(Cl)cc4C(F)(F)F)n3c2n1 [Example 91, 9-[4-Chloro-2-(trifluoromethyl)phenyl]-2-methoxy-6,7-dimethylimidazo[1,5-a]pyrido[3,2-e]pyrazine]	< 10	
COc1ccc2nc(C)c3c(C)nc(-c4ccc(OC(F)(F)F)cc4)n3c2n1 [Example 64, 2-Methoxy-6,7-dimethyl-9-[4-(trifluoromethoxy)phenyl]imidazo[1,5-a]pyrido[3,2-e]pyrazine]	10 to 100	
COc1ccc2nc(C)c3c(C)nc(-c4ccc(-c5ccccc5)cc4)n3c2n1 [Example 72, 9-Biphenyl-4-yl-2-methoxy-6,7-dimethylimidazo[1,5-a]pyrido[3,2-e]pyrazine]	> 100	

Further lines, with some results ahead:

IC50 [1] [nM]	Structure (SMILES)	also measured
< 10	COc1ccc2nc(C)c3c(C)nc(-c4cccc(Cl)c4C)n3c2n1 [Example 87, 9-(3-Chloro-2-methylphenyl)-2-methoxy-6,7-dimethylimidazo[1,5-a]pyrido[3,2-e]pyrazine]	
< 10	COc1cccc(-c2nc(C)c3c(C)nc4ccc(OC)nc4n23)c1 [Example 62, 2-Methoxy-9-(3-methoxyphenyl)-6,7-dimethylimidazo[1,5-a]pyrido[3,2-e]pyrazine]	
10 to 100	COc1ccc2nc(C)c3c(C)nc(-c4cccs4)n3c2n1 [Example 68, 2-Methoxy-6,7-dimethyl-9-(2-thienyl)imidazo[1,5-a]pyrido[3,2-e]pyrazine]	
< 10	COc1ccc2nc(C)c3c(C)nc(-c4cccc(F)c4C)n3c2n1 [Example 88, 9-(3-Fluoro-2-methylphenyl)-2-methoxy-6,7-dimethylmidazo[1,5-a]pyrido[3,2-e]pyrazine]	
10 to 100	COc1ccc2nc(C)c3c(C)nc(-c4ccc(C)cc4)n3c2n1 [Example 59, 2-Methoxy-6,7-dimethyl-9-(4-methylphenyl)imidazo[1,5-a]pyrido[3,2-e]pyrazine]	
< 10	COc1ccc2nc(C)c3c(C)nc(-c4cc(Cl)ccc4Cl)n3c2n1 [Example 47, 9-(2,5-Dichlorophenyl)-2-methoxy-6,7-dimethylimidazo[1,5-a]pyrido[3,2-e]pyrazine]	
10 to 100	COc1ccc2nc(C)c3c(C)nc(-c4ccc(Cl)s4)n3c2n1 [Example 92, 9-(5-Chloro-2-thienyl)-2-methoxy-6,7-dimethylimidazo[1,5-a]pyrido[3,2-e]pyrazine]	
< 10	COc1ccc2nc(C)c3c(C)nc(-c4cscc4C)n3c2n1 [Example 69, 2-Methoxy-6,7-dimethyl-9-(4-methyl-3-thienyl)imidazo[1,5-a]pyrido[3,2-e]pyrazine]	
< 10	COc1ccc2nc(C)c3c(C)nc(-c4cccc(C(N)=O)c4)n3c2n1 [Example 93, 3-(2-Methoxy-6,7-dimethylimidazo[1,5-a]pyrido[3,2-e]pyrazin-9-yl)benzamide]	
10 to 100	COc1ccc2nc(C)c3c(C)nc(-c4cccc(C#N)c4)n3c2n1 [Example 73, 3-(2-Methoxy-6,7-dimethylimidazo[1,5-a]pyrido[3,2-e]pyrazin-9-yl)benzonitrile]	
10 to 100	COc1ccc2nc(C)c3c(C)nc(-c4ccccc4OC)n3c2n1 [Example 52, 2-Methoxy-9-(2-methoxyphenyl)-6,7-dimethylimidazo[1,5-a]pyrido[3,2-e]pyrazine]	
